From patent US20170354639A1, “DITERPENOID DERIVATIVES AND METHODS OF USE THEREOF” (Biogen MA Inc., priority 2014, published 2017) come the findings set out here.

Sequence of Nrf2-Keap1 (Q14145 whole entry): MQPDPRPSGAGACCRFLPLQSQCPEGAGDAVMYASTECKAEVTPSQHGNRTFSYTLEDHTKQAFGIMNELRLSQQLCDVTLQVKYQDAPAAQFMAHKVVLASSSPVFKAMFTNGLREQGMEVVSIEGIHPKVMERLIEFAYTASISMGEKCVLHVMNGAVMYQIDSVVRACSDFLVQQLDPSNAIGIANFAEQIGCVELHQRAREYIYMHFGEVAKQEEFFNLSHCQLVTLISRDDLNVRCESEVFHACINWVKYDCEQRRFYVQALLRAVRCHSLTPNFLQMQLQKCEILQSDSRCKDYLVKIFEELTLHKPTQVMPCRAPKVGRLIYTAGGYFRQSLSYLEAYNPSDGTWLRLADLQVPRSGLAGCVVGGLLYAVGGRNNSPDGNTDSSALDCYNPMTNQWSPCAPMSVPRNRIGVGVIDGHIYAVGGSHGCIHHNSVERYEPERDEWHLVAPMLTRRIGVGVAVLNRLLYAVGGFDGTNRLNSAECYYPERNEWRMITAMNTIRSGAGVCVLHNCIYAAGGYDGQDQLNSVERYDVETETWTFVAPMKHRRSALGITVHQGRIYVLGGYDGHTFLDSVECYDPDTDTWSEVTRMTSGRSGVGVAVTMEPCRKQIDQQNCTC

The target in one assay is Nrf2-Keap1 (Homo sapiens, UniProt Q14145). Put plainly: DiscoveRx PathHunter Nrf2-Keap1 nuclear translocation functional assay (agonist format). The assay is classed as cell-based. The following applies: 10 concentrations, 3-fold serial dilutions, 30 μM top concentration, in duplicate; agonist mode; normalized to CDDO methyl ester and vehicle. As for the experimental part:
DiscoveRx PathHunter® Nrf2-Keap1 Functional Assay
DiscoveRx's Nrf2-Keapl translocation assay was used to profile compounds. Primary Screening was performed in duplicate at a single concentration of 10 μM and EC50 determinations were performed in duplicate at 10 concentrations with 3-fold serial dilutions at a 30 μM top concentration or an otherwise specified top concentration.
The PathHunter® Nuclear Translocation assay detects translocation of a target protein to, or from, the nucleus. In this system, Prolink™ (PK), a small enzyme fragment, is fused to the protein of interest and Enzyme Acceptor (EA) is localized in the nucleus. Activation of the signaling pathway induces the target protein to either transit into the nucleus, thus forcing complementation of the PK and EA fragments, or out of the nucleus, hindering complementation of the fragments.
Cell handling: PathHunter Pathway cell lines were expanded from freezer stocks according to standard procedures. 5000 cells were seeded in Cell Plating Reagent 0 (containing 1% FBS) to a total volume of 20 μL into white walled, 384-well microplates and incubated for the overnight prior to testing.
Agonist format: For Agonist determination, cells were incubated with sample to induce response. Dilution of sample stocks was performed to generate 100× sample in DMSO. Intermediate dilution of sample stocks was performed to generate 5× sample in assay buffer (Cell Plating Reagent 0 containing 1% FBS). 5 μL of 5× sample was added to cells and incubated at room temperature for 6 hours. Vehicle concentration was 1%.
Signal detection: Assay signal was generated through a single addition of 25 μL (100% v/v) of PathHunter Flash Detection reagent, followed by a one hour incubation at room temperature. Microplates were read following signal generation with a PerkinElmer Envision™ instrument for chemiluminescent signal detection.
Data analysis: Compound activity was analyzed using CBIS data analysis suite (ChemInnovation, CA). For agonist mode assays, percentage activity was calculated using the following formula: % Activity=100%×(mean RLU of test sample−mean RLU of vehicle control)/(mean MAX RLU control ligand−mean RLU of vehicle control). For EC50 determination, a control agonist dose response curve was generated in the Keap 1-Nrf2 biosensor assay, data was normalized to the maximal and minimal response observed in the presence of the control ligand and vehicle respectively. CDDO methyl ester was used as a control compound. Compounds were tested in the agonist mode of the assay and data was normalized to the maximal and minimal response observed in the presence of control ligand and vehicle.
Turning to `C=C1CC[C@@H]2[C@]3(C)COS(=O)O[C@@H]3CC[C@@]2(C)[C@@H]1C/C=C1/C(=O)OC[C@@H]1NC=O` (stereo partly drawn) [Example 21, N-((3R,E)-4-(2-((4aR,6aS,7R,10aS,10bR)-6a,10b-dimethyl-8-methylene-3-oxidodecahydro-1H-naphtho[2,1-d][1,3,2]dioxathiin-7-yl)ethylidene)-5-oxotetrahydrofuran-3-yl)formamide], the EC50 is more than 2000 nM.

In the case of `C=C1CC[C@H]2[C@@](C)(CC[C@@]3(C)OS(=O)OC[C@@]23C)[C@@H]1C/C=C1/C(=O)OCC1NC=O` (stereo partly drawn) [Example 22, N-((E)-5-oxo-4-(2-((4aR,6aS,7R,10aS,10bR)-4a,6a,10b-trimethyl-8-methylene-3-oxidodecahydro-1H-naphtho[2,1-d][1,3,2]dioxathiin-7-yl)ethylidene)tetrahydrofuran-3-yl)formamide], the concentration for a half-maximal effect (EC50) was in the range of 500 to 2000 nM. On to `CC(=O)N[C@@H]1COC(=O)/C1=C/CC[C@H]1C2(CC[C@H]3C(C)(C)CCC[C@@]31C)CC2` [Example 35, N-((S,E)-5-oxo-4-(3-((1′S,4a′S,8a′S)-5′,5′,8a′-trimethyloctahydro-1′H-spiro[cyclopropane-1,2′-naphthalen]-1′-yl)propylidene)tetrahydrofuran-3-yl)acetamide], for which the 50% effective concentration (EC50) was more than 2000 nM.

As to `CC(=O)N[C@@H]1COC(=O)/C1=C\CC[C@H]1C2(CC[C@H]3C(C)(C)CCC[C@@]31C)CC2` [Example 36, N—((S,Z)-5-oxo-4-(3-((1′S,4a′S,8a′S)-5′,5′,8a′-trimethyloctahydro-1′H-spiro[cyclopropane-1,2′-naphthalen]-1′-yl)propylidene)tetrahydrofuran-3-yl)acetamide], the concentration for a half-maximal effect (EC50) is more than 2000 nM. In turn, `C=C1CC[C@@H]2[C@@H](C)[C@](O)(C(F)(F)F)CC[C@@]2(C)[C@@H]1C/C=C1/C(=O)OC[C@H]1O` [Example 42A, (S,E)-4-hydroxy-3-(2-((1R,4aR,5R,6S,8aR)-6-hydroxy-5,8a-dimethyl-2-methylene-6-(trifluoromethyl)decahydronaphthalen-1-yl)ethylidene)dihydrofuran-2(3H)one] showed a concentration for a half-maximal effect (EC50) of less than 500 nM.

Still in this assay, the particulars now being: 6 h, single concentration of 10 μM, in duplicate; agonist mode; normalized to control ligand (CDDO methyl ester) and vehicle.
`CO[C@@H]1CC[C@@]2(C)C(C/C=C3/C(=O)OC[C@H]3O)=C(C)CC[C@@H]2[C@H]1C` [Example 18, (S,E)-4-hydroxy-3-(2-((4aR,5R,6R,8aR)-6-methoxy-2,5,8a-trimethyl-3,4,4a,5,6,7,8,8a-octahydronaphthalen-1-yl)ethylidene)dihydrofuran-2(3H)-one] gave an activation at 10 µM of 30 to 50%. Still for that read-out and setting: then `C=C1CC[C@@H]2[C@]3(C)COS(=O)O[C@@H]3CC[C@@]2(C)[C@@H]1C/C=C1/C(=O)OCC1NC=O` (stereo partly drawn) [Example 19, N-((E)-4-(2-((4aR,6aS,7R,10aS,10bR)-6a,10b-dimethyl-8-methylene-3-oxidodecahydro-1H-naphtho[2,1-d][1,3,2]dioxathiin-7-yl)ethylidene)-5-oxotetrahydrofuran-3-yl)formamide], with 51 to 100%; and `C=C1CC[C@@H]2[C@]3(C)COS(=O)O[C@@H]3CC[C@@]2(C)[C@@H]1C/C=C1/C(=O)OC[C@@H]1NC=O` (stereo partly drawn) [Example 21, N-((3R,E)-4-(2-((4aR,6aS,7R,10aS,10bR)-6a,10b-dimethyl-8-methylene-3-oxidodecahydro-1H-naphtho[2,1-d][1,3,2]dioxathiin-7-yl)ethylidene)-5-oxotetrahydrofuran-3-yl)formamide], with 51 to 100%; and `C=C1CC[C@H]2[C@@](C)(CC[C@@]3(C)OS(=O)OC[C@@]23C)[C@@H]1C/C=C1/C(=O)OCC1NC=O` (stereo partly drawn) [Example 22, N-((E)-5-oxo-4-(2-((4aR,6aS,7R,10aS,10bR)-4a,6a,10b-trimethyl-8-methylene-3-oxidodecahydro-1H-naphtho[2,1-d][1,3,2]dioxathiin-7-yl)ethylidene)tetrahydrofuran-3-yl)formamide], with 51 to 100%. In turn, `CC1(C)CCC[C@@]2(C)[C@H]1CCC1(CC1)[C@@H]2C/C=C1\C(=O)OCC1O` (stereo partly drawn) [Example 23, (Z)-4-hydroxy-3-(2-((1′S,4a′S,8a′S)-5′,5′,8a′-trimethyloctahydro-1′H-spiro[cyclopropane-1,2′-naphthalen]-1′-yl)ethylidene)dihydrofuran-2(3H)-one] gave an activation at 10 µM of 51 to 100%. Same read-out and setting: then `CC1(C)CCC[C@@]2(C)[C@H]1CCC1(CC1)[C@@H]2C/C=C1/C(=O)OC[C@H]1NC=O` [Example 24, N—((S,E)-5-oxo-4-(2-((1′S,4a′S,8a′S)-5′,5′,8a′-trimethyloctahydro-1′H-spiro[cyclopropane-1,2′-naphthalen]-1′-yl)ethylidene)tetrahydrofuran-3-yl)formamide], with 51 to 100%; and `CC1(C)CCC[C@@]2(C)[C@H]1CCC1(CC1)[C@@H]2C/C=C1\C(=O)OC[C@H]1NC=O` [Example 25, N—((S,Z)-5-oxo-4-(2-((1′S,4a′S,8a′S)-5′,5′,8a′-trimethyloctahydro-1′H-spiro[cyclopropane-1,2′-naphthalen]-1′-yl)ethylidene)tetrahydrofuran-3-yl)formamide], with 51 to 100%; and `CC(=O)N[C@@H]1COC(=O)/C1=C/C[C@H]1C2(CC[C@H]3C(C)(C)CCC[C@@]31C)CC2` [Example 26, N—((S,E)-5-oxo-4-(2-((1′S,4a′S,8a′S)-5′,5′,8a′-trimethyloctahydro-1′H-spiro[cyclopropane-1,2′-naphthalen]-1′-yl)ethylidene)tetrahydrofuran-3-yl)acetamide], with 30 to 50%. On the same count and under the same terms, then `CC(=O)N[C@@H]1COC(=O)/C1=C\C[C@H]1C2(CC[C@H]3C(C)(C)CCC[C@@]31C)CC2` [Example 27, N—((S,Z)-5-oxo-4-(2-((1′S,4a′S,8a′S)-5′,5′,8a′-trimethyloctahydro-1′H-spiro[cyclopropane-1,2′-naphthalen]-1′-yl)ethylidene)tetrahydrofuran-3-yl)acetamide], with 30 to 50%; and `C=C1CC[C@@H]2[C@]3(C)COS(=O)O[C@@H]3CC[C@@]2(C)[C@@H]1C/C=C1\C(=O)OC[C@H]1NC=O` (stereo partly drawn) [Example 28, N-((3S,Z)-4-(2-((4aR,6aS,7R,10aS,10bR)-6a,10b-dimethyl-8-methylene-3-oxidodecahydro-1H-naphtho[2,1-d][1,3,2]dioxathiin-7-yl)ethylidene)-5-oxotetrahydrofuran-3-yl)formamide], with 51 to 100%; and `C=C1CC[C@@H]2[C@]3(C)COS(=O)O[C@@H]3CC[C@@]2(C)[C@@H]1C/C=C1\C(=O)OC[C@@H]1NC=O` (stereo partly drawn) [Example 29, N-((3R,Z)-4-(2-((4aR,6aS,7R,10aS,10bR)-6a,10b-dimethyl-8-methylene-3-oxidodecahydro-1H-naphtho [2,1-d][1,3,2]dioxathiin-7-yl)ethylidene)-5-oxotetrahydrofuran-3-yl)formamide], with 51 to 100%.

Compound `CC1(C)CCC[C@@]2(C)[C@H]1CCC1(CC1)[C@@H]2CC/C=C1/C(=O)OCC1O` (stereo partly drawn) [Example 32, (E)-4-hydroxy-3-(3-((1′S,4a′S,8a′S)-5′,5′,8a′-trimethyloctahydro-1′H-spiro[cyclopropane-1,2′-naphthalen]-1′-yl)propylidene)dihydrofuran-2(3H)-one] returned an activation at 10 µM of 30 to 50%. With `CC1(C)CCC[C@@]2(C)[C@H]1CCC1(CC1)[C@@H]2CC/C=C1/C(=O)OC[C@H]1NC=O` [Example 33, N-((S,E)-5-oxo-4-(3-((1′S,4a′S,8a′S)-5′,5′,8a′-trimethyloctahydro-1′H-spiro[cyclopropane-1,2′-naphthalen]-1′-yl)propylidene)tetrahydrofuran-3-yl)formamide], the activation at 10 µM was 30 to 50%. Still for that read-out and setting: then `CC1(C)CCC[C@@]2(C)[C@H]1CCC1(CC1)[C@@H]2CC/C=C1\C(=O)OC[C@H]1NC=O` [Example 34, N-((S,Z)-5-oxo-4-(3-((l′S,4a′S,8a′S)-5′,5′,8a′-trimethyloctahydro-1′H-spiro[cyclopropane-1,2′-naphthalen]-1′-yl)propylidene)tetrahydrofuran-3-yl)formamide], with 30 to 50%. Still for that read-out and setting: then `CC(=O)N[C@@H]1COC(=O)/C1=C/CC[C@H]1C2(CC[C@H]3C(C)(C)CCC[C@@]31C)CC2` [Example 35, N-((S,E)-5-oxo-4-(3-((1′S,4a′S,8a′S)-5′,5′,8a′-trimethyloctahydro-1′H-spiro[cyclopropane-1,2′-naphthalen]-1′-yl)propylidene)tetrahydrofuran-3-yl)acetamide], with 51 to 100%; and `CC(=O)N[C@@H]1COC(=O)/C1=C\CC[C@H]1C2(CC[C@H]3C(C)(C)CCC[C@@]31C)CC2` [Example 36, N—((S,Z)-5-oxo-4-(3-((1′S,4a′S,8a′S)-5′,5′,8a′-trimethyloctahydro-1′H-spiro[cyclopropane-1,2′-naphthalen]-1′-yl)propylidene)tetrahydrofuran-3-yl)acetamide], with 51 to 100%; and `CC1(C)CCC[C@@]2(C)[C@H]1CCC1(CC1)[C@@H]2CC/C=C1/C(=O)OC[C@H]1NS(C)(=O)=O` [Example 37, N—((S,E)-5-oxo-4-(3-((1′S,4a′S,8a′S)-5′,5′,8a′-trimethyloctahydro-1′H-spiro[cyclopropane-1,2′-naphthalen]-1′-yl)propylidene)tetrahydrofuran-3-yl)methanesulfonamide], with 30 to 50%.

For the compound `CC1(C)CCC[C@@]2(C)[C@H]1CCC1(CC1)[C@@H]2CC/C=C1\C(=O)OC[C@H]1NS(C)(=O)=O` [Example 38, N—((S,Z)-5-oxo-4-(3-((1′S,4a′S,8a′S)-5′,5′,8a′-trimethyloctahydro-1′H-spiro[cyclopropane-1,2′-naphthalen]-1′-yl)propylidene)tetrahydrofuran-3-yl)methanesulfonamide], the activation at 10 µM lay in the range of 30 to 50%.

Still in this assay, the particulars now being: single concentration of 10 μM, in duplicate; agonist mode, 6 hours; normalized to control ligand (CDDO methyl ester) and vehicle.
Take `C=C1CC[C@@H]2[C@]3(C)COS(=O)O[C@@H]3CC[C@@]2(C)[C@@H]1C/C=C1/C(=O)OCC1NC(=O)COC` (stereo partly drawn) [Example 40A, N-((E)-4-(2-((4aR,6aS,7R,10aS,10bR)-6a,10b-dimethyl-8-methylene-3-oxidodecahydro-1H-naphtho[2,1-d][1,3,2]dioxathiin-7-yl)ethylidene)-5-oxotetrahydrofuran-3-yl)-2-methoxyacetamide]: the activation at 10 µM lay in the range of 51 to 100%.
